Experimental data from US5994303A, “Use of insulin and IGF-I” (Chiron Corporation, priority 1994, dated 1999).
“Also recorded” adds a separate entry of the source.

Legend:
Male Sprague-Dawley rats [1] = experiment: Example 2: dexamethasone-treated rats infused with insulin, rhGH, rhIGF-I and combinations; feed intake, nitrogen digestion and retention, serum urea; assay type: in vivo, rat; conditions: for Feed intake / feed consumption (in words) / Nitrogen balance / nitrogen wasting induced by dexamethasone (in words) / Relative nitrogen retention (retained N/digested N x 100): 8 days infusion; for Nitrogen balance / nitrogen wasting induced by dexamethasone (in words): Dex 26 ug/day with or without peptides; for Relative nitrogen retention (retained N/digested N x 100): Dex 26 ug/day with peptides: insulin 39, rhGH 360, rhIGF-I 500 ug/day, mean, pooled SE
Protocol: On day zero the rats were anaesthetized intraperitoneally with 0.4 ml per 100 g body weight of a mixture of Rompun (20 mg·ml^-1), Ketalar (50 mg·ml^-1) and Saline (0.9%) in 1:2:3 volume proportions. The hair on the back of the rats was shaved off and the exposed skin carefully washed with 0.05% chlorhexidine (Pharmacia, Stockholm, Sweden) and 0.4% jodopax (Molnlycke, Goteborg, Sweden), both being diluted in 70% alcohol.
Two mutually parallel incisions, each of 15 mm in length, were then made along the dorsal midline. The incisions penetrated the epidermis, dermis and subcutaneous muscle but left the deep fascia intact. Two subcutaneous pockets were made on both sides of the incisions by separating the subcutaneous muscle from the deep fascia. One (Exp. I) or two (Exp. 2) mini-pumps were implanted in each pocket. The wounds were closed with sutures 4-0 Johnson & Johnson).
Osmotic mini-pumps (Alzet 2001, Alza Corporation, Palo Alto, USA) releasing 1 μl·h^-1 for 8 days were used for continuous delivery of hormones and Dex to the animals. The pumps were filled to a volume of 0.22 ml with solutions of rhGH (14.4 mg·ml^-1, Genotropin®, Pharmacia), rhIGF-I (20 mg·ml^-1, Igef®, Pharmacia, Kabi Peptide Hormones, Stockholm, Sweden), insulin (1.57 mg/ml, Actrapid®, Novo, Copenhagen, Denmark), Dex (1.04 mg·ml^-1, Decadron, Merck Sharp & Dohme International, Rathway, USA) or Saline (0.9%). Two (Example 1) or four (Example 2) pumps combined as described above were implanted in each rat. Implantation of the pumps was performed under strictly aseptic conditions.
Total feed intake was registered throughout the full 8 day experimental period. Urine and faeces were collected daily, pooled and kept at -20° C. until analysed. Excreta was collected by housing the animals in individual metabolism cages that were specially designed for the separation of urine and faeces. In order to inhibit urease-activity in the urine, 1 ml of 5% sulphuric acid was pipetted every morning in the collection vessels. The 24 hour collections of urine were pooled individually for each treatment period and immediately frozen after the collection. Similarly, the samples of faeces were also pooled individually for each treatment period and kept frozen (-20° C.) until analysis.
Blood samples were taken on day zero and on the last day of the experiment. During anaesthesia, blood was withdrawn quickly from the orbital plexus by using a glass capillary. On each sampling occasion 0.75 ml blood was taken 5 from each animal. One third (0.25 ml) of the blood sample was collected in a microtainer tube containing EDTA (Beckton and Dickinson) for analysis of glucose. Serum was prepared from the remaining blood sample (0.5 ml) in accordance with standard methods and analysed for urea.
Urea in serum was determined spectrophotometrically by using the Urea UV Uni-Kit II (Roche) with an autoanalyzer (Cobas Mira, Roche Co, Basel, Switzerland). Urea values were expressed in mmol/l. The total nitrogen content in urine was determined with the aid of the Antek Pyro-Chemilumicence Nitrogen System. The apparatus used comprised the Antek 7000N nitrogen analyser with Liquid Auto Sampler 736-2 and a pyrolysis tube with a ceramic liner (Antek Instruments Inc., Houston, Tex., U.S.A.). The frozen urinary samples were thawed and diluted 1:100 with 0.1 M HCl and then analysed. The urinary nitrogen values were then calculated as mg nitrogen excreted.
Total nitrogen in faeces was determined by an established Kjeldahl method (Kjeltec System, Tecator AB, Halsingborg, Sweden). The frozen faecal samples were thawed and dried in an oven at 60° C. overnight. The weight of the dried sample was noted and the sample then ground. 0.20 g of the milled faecal sample was mixed in a Kjeldahl digestion tube with 10.0 ml of concentrated sulphuric acid. 2.0 ml of a 30% solution of H2 O2 (30% Perhydrol, Merck, Darmstadt, Germany) was added and mixed carefully.

Male Sprague-Dawley rats [2] = experiment: Example 1: dexamethasone-treated rats infused with saline, rhGH or rhIGF-I; body weight gain and nitrogen retention; assay type: in vivo, rat; conditions: for Retention of nitrogen (nitrogen balance): 8 days infusion with Dex, rhIGF-I 500 per day vs saline or rhGH
Protocol: On day zero the rats were anaesthetized intraperitoneally with 0.4 ml per 100 g body weight of a mixture of Rompun (20 mg·ml^-1), Ketalar (50 mg·ml^-1) and Saline (0.9%) in 1:2:3 volume proportions. The hair on the back of the rats was shaved off and the exposed skin carefully washed with 0.05% chlorhexidine (Pharmacia, Stockholm, Sweden) and 0.4% jodopax (Molnlycke, Goteborg, Sweden), both being diluted in 70% alcohol. Two mutually parallel incisions, each of 15 mm in length, were then made along the dorsal midline. The incisions penetrated the epidermis, dermis and subcutaneous muscle but left the deep fascia intact. Two subcutaneous pockets were made on both sides of the incisions by separating the subcutaneous muscle from the deep fascia. One (Exp. I) or two (Exp. 2) mini-pumps were implanted in each pocket. The wounds were closed with sutures 4-0 Johnson & Johnson). Osmotic mini-pumps (Alzet 2001, Alza Corporation, Palo Alto, USA) releasing 1 μl·h^-1 for 8 days were used for continuous delivery of hormones and Dex to the animals. The pumps were filled to a volume of 0.22 ml with solutions of rhGH (14.4 mg·ml^-1, Genotropin®, Pharmacia), rhIGF-I (20 mg·ml^-1, Igef®, Pharmacia, Kabi Peptide Hormones, Stockholm, Sweden), insulin (1.57 mg/ml, Actrapid®, Novo, Copenhagen, Denmark), Dex (1.04 mg·ml^-1, Decadron, Merck Sharp & Dohme International, […], USA) or Saline (0.9%). Two (Example 1) or four (Example 2) pumps combined as described above were implanted in each rat. Implantation of the pumps was performed under strictly aseptic conditions. Total feed intake was registered throughout the full 8 day experimental period. Urine and faeces were collected daily, pooled and kept at -20° C. until analysed. Excreta was collected by housing the animals in individual metabolism cages that were specially designed for the separation of urine and faeces. In order to inhibit urease-activity in the urine, 1 ml of 5% sulphuric acid was pipetted every morning in the collection vessels. The 24 hour collections of urine were pooled individually for each treatment period and immediately frozen after the collection. Similarly, the samples of faeces were also pooled individually for each treatment period and kept frozen (-20° C.) until analysis. Urea in serum was determined spectrophotometrically by using the Urea UV Uni-Kit II (Roche) with an autoanalyzer (Cobas Mira, Roche Co, Basel, Switzerland). Urea values were expressed in mmol/l. The total nitrogen content in urine was determined with the aid of the Antek Pyro-Chemilumicence Nitrogen System. The apparatus used comprised the […] nitrogen analyser with Liquid Auto Sampler 736-2 and a pyrolysis tube with a ceramic […] Instruments Inc., Houston, Tex., U.S.A.). The frozen urinary samples were thawed and diluted 1:100 with 0.1 M HCl and then analysed. The urinary nitrogen values were then calculated as mg nitrogen excreted. Total nitrogen in faeces was determined by an established Kjeldahl method (Kjeltec System, Tecator AB, Halsingborg, Sweden). The frozen faecal samples were thawed and dried in an oven at 60° C. overnight. The weight of the dried sample was noted and the sample then ground. 0.20 g of the milled faecal sample was mixed in a Kjeldahl digestion tube with 10.0 ml of concentrated sulphuric acid. 2.0 ml of a 30% solution of H2 O2 (30% Perhydrol, Merck, Darmstadt, Germany) was added and mixed carefully. One catalyst tablet (Kjeltabs C A, Thompson & Capper, Runcom, Cheshire, UK) was added to each sample. The mixture was digested at 380° C. for at least one hour or until complete bleaching of the sample was achieved. […] The faecal nitrogen values were calculated as mg nitrogen excreted. Data were subjected to a one-way analysis of variance in which the effect of treatment was considered the prime source of variation. Calculations were executed by the GLM procedure of the SAS program (SAS 1985). […]

[3] = 8 days s.c. mini-pump infusion, at every Dex dose (26, 13 or 6.5 per day), rhGH 360, rhIGF-I 500 per day, vs saline

rhIGF-I: recombinant human insulin-like growth factor I (Igef, Pharmacia)
Feed intake / feed consumption (in words) (Male Sprague-Dawley rats [1]): slightly stimulated feed consumption
Nitrogen balance / nitrogen wasting induced by dexamethasone (in words) (Male Sprague-Dawley rats [1]): decreased significantly the wasting of nitrogen induced by dexamethasone
Relative nitrogen retention (retained N/digested N x 100) (Male Sprague-Dawley rats [1]): 23.0%
Retention of nitrogen (nitrogen balance) (Male Sprague-Dawley rats [2]): significantly (p<0.05) higher; also recorded: followed the same pattern
Body weight gain (Male Sprague-Dawley rats [2]; [3]): significantly (p<0.05) higher weight gain in comparison with saline; also recorded: significantly (p<0.05) increased

insulin: insulin (Actrapid, Novo)
Nitrogen balance / nitrogen wasting induced by dexamethasone (in words) (Male Sprague-Dawley rats [1]): without effect
Relative nitrogen retention (retained N/digested N x 100) (Male Sprague-Dawley rats [1]): 11.9%

C[C@@H]1C[C@H]2[C@@H]3CCC4=CC(=O)C=C[C@]4(C)[C@@]3(F)[C@@H](O)C[C@]2(C)[C@@]1(O)C(=O)CO [Dex, dexamethasone, reference compound]
Feed intake / feed consumption (in words) (Male Sprague-Dawley rats [1]): generally decreased feed intake
Nitrogen balance / nitrogen wasting induced by dexamethasone (in words) (Male Sprague-Dawley rats [1]): decrease the nitrogen balance dramatically
Relative nitrogen retention (retained N/digested N x 100) (Male Sprague-Dawley rats [1]): 7.2%
Reduction of feed intake (Male Sprague-Dawley rats [1]; Dex 26 per day, 8 days): approximately 20%
Body weight gain (Male Sprague-Dawley rats [2]; [3]): general decrease with increased Dex dose

rhGH: recombinant human growth hormone (Genotropin, Pharmacia)
Nitrogen balance / nitrogen wasting induced by dexamethasone (in words) (Male Sprague-Dawley rats [1]): not found to counteract the nitrogen wasting induced by dexamethasone
Nitrogen balance / nitrogen wasting induced by dexamethasone (in words) (Male Sprague-Dawley rats [1]; listed as GH): without effect
Relative nitrogen retention (retained N/digested N x 100) (Male Sprague-Dawley rats [1]): 3.8%
Retention of nitrogen (nitrogen balance) (Male Sprague-Dawley rats [2]): followed the same pattern
Body weight gain (Male Sprague-Dawley rats [2]; 8 days infusion, at the medium and high Dex infusion dose): negative values for body weight gain
Body weight gain (Male Sprague-Dawley rats [2]; [3]): the opposite effect
